Test results as given in paper PMC8465290, “Zoledronic Acid as a Novel Dual Blocker of KIR6.1/2-SUR2 Subunits of ATP-Sensitive K^+ Channels: Role in the Adverse Drug Reactions” (Pharmaceutics, 2021).

Experiments:
[1] = Pharmacovigilance analysis of A.D.R. in EudraVigilance database; set-up: species or system human
Source text: All coding preferred terms per System Organ Class (S.O.C.) were screened in the EudraVigilance database (http://www.adrreports.eu/ accessed on 1 May 2021), and those potentially associated with KATP channel blocking actions were reported and subject to analysis.
The data were extracted from EudraVigilance, collected, and analyzed on Microsoft 365 Excel software package (Microsoft 10.00). The not specified category was not included in the calculation. The duplication of a specific report per S.O.C. was evaluated manually and excluded from the analysis.
The Proportional Reporting Ratio (P.R.R.) was calculated using the following equation: a/(a+c)/b/(b + d) where a is the reaction of interest to a given drug of interest, b is the reaction of interest for all other drugs in the class, c are all other reactions to a given drug of interest, and d are all other reactions to all other drugs in the class. Signal definition: P.R.R. ≥ 2, a minimum of three ratios/cases for the reaction of interest, X^2 ≥ 4. No signal is identified if P.R.R. is = 1 [47].

KIR6.2-SUR2A = target: T1, KIR6.2-SUR2A (Homo sapiens, UniProt O60706+Q14654); experiment: Whole-cell current of recombinant KIR6.2-SUR2A in Hek293 cells; format: cell-based
T1 construct: expressed in transfected cells; host or cells: Hek293
Description: (§1) For experiments on recombinant channel subunits, Hek293 cells were transfected with the relevant plasmids, as previously described.
(§2) The solutions for whole-cell and cell attached patches were as follows. The pipette solution contained 132 mM KCl, 1 mM ethylene glycol-bis(β-aminoethylether)-N,N,N′,N′-tetraaceticacid (EGTA), 10 mM NaCl, 2 mM MgCl2, 10 mM HEPES, 1 mM Na2ATP, and 0.3 mM Na2GDP (pH = 7.2). The bath solution contained 142 mM NaCl, 2.8 mM KCl, 1 mM CaCl2, 1 mM MgCl2, 11 mM glucose, and 10 mM HEPES (pH = 7.4).
(§3) CaCl2 was added to the pipette solutions to give a free Ca^2+ ion concentration of 1.6 × 10^−6 M in whole-cell experiments. The calculation of the free Ca^2+ ion concentration in the pipette was performed using the MaxChelator software (Stanford University; Stanford, CA, USA).
(§4) The whole-cell and cell-attached patch-clamp experiments were performed in asymmetrical K^+ ion concentration in physiological conditions using pipettes with the resistance of 3–5 MΩ.
(§5) Drug actions on the channel currents recorded during instantaneous I/V relationships were investigated by applying a depolarization protocol, in response to voltage pulses from −180 mV to +100 mV (Vm) in 20 mV steps. Currents were expressed as densities (pA/pF) to control for cell size/capacitance differences. All experiments were performed at room temperature (20–22 °C) and sampled at 2 kHz (filter = 1 kHz) using an Axopatch-1D amplifier equipped with a CV-4 headstage (Axon Instruments; Foster City, CA, USA). Drug solutions were applied using a fast perfusion system during the continuous monitoring of the seal resistance at 18–22 °C room temperature in excised patches. In whole-cell and cell-attached patch-clamp experiments, before recording, the cells were equilibrated for 10 s with the solution. […] Seal resistance was continuously monitored during the experiment.
(§6) The percentage of KATP current inhibition induced by ZOL was calculated as (I CTRL-I drug)/(I CTRL-I BaCl2) × −100. […]

[2] = set-up: method as in EudraVigilance database; details: cited from earlier work
[3] = tested on: KATP channels of Soleus (SOL) muscle fibers; experiment: KATP currents in excised macro-patches from SOL muscle fibers (patch-clamp); format: cell-based, mice; details: excised macropatches
Source text: (§7) In accordance with 3R RULE (DIRECTIVE 2010/63/EU) Replace, Reduce, Refine, bone and skeletal muscle were collected from wild-type male mice C57BL sacrificed for other scientific purposes (Ethic Committee name, Organization for Animal Health O.P.B.A. University of Bari, Italy, project: 7282018PR). The fibers were enzymatically isolated from Extensor digitorum longus (EDL) and Soleus (SOL) muscles, as previously described.
(§8) The solutions for excised patch experiments on isolated muscle fibers were as follows. The patch-pipette solution contained 150 mM KCl, 2 mM CaCl2, and 1 mM Mops (pH 7.2); the bath solution contained 150 mM KCl, 5 mM EGTA, and 10 mM Mops (pH 7.2).
(§9) The KATP currents of native skeletal muscle fibers were recorded in excised macro patches using pipettes of 0.9–1.2 MΩ of resistance on isolated skeletal muscle fibers in symmetrical 150 mM K^+ ions concentrations on both sides of the membrane during pulse going from 0 mV to −60 mV (Vm), as previously described.
as §5, §6

[4] = target: T2, KATP channels of Extensor digitorum longus (EDL) muscle fibers (Mus musculus, UniProt P70170+Q61743); experiment: KATP currents in excised macro-patches from EDL muscle fibers (patch-clamp); format: cell-based, mice; details: excised macropatches
T2 construct: The KATP currents of native skeletal muscle fibers were recorded in excised macro patches; from tissue; host or cells: isolated Extensor digitorum longus muscle fibers of C57BL mice
T2 sequence (Q61743 whole entry): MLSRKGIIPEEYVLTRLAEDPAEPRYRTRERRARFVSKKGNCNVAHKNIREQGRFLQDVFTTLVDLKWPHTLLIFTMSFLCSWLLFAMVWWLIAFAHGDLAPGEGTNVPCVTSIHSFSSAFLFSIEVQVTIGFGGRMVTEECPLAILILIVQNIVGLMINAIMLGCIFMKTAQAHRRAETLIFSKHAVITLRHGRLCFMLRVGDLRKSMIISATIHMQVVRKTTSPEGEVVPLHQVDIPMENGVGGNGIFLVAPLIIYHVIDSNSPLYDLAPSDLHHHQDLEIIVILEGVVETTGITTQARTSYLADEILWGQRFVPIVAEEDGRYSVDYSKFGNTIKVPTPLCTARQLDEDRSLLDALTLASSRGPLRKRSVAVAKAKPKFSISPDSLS
T2 sequence (P70170 whole entry): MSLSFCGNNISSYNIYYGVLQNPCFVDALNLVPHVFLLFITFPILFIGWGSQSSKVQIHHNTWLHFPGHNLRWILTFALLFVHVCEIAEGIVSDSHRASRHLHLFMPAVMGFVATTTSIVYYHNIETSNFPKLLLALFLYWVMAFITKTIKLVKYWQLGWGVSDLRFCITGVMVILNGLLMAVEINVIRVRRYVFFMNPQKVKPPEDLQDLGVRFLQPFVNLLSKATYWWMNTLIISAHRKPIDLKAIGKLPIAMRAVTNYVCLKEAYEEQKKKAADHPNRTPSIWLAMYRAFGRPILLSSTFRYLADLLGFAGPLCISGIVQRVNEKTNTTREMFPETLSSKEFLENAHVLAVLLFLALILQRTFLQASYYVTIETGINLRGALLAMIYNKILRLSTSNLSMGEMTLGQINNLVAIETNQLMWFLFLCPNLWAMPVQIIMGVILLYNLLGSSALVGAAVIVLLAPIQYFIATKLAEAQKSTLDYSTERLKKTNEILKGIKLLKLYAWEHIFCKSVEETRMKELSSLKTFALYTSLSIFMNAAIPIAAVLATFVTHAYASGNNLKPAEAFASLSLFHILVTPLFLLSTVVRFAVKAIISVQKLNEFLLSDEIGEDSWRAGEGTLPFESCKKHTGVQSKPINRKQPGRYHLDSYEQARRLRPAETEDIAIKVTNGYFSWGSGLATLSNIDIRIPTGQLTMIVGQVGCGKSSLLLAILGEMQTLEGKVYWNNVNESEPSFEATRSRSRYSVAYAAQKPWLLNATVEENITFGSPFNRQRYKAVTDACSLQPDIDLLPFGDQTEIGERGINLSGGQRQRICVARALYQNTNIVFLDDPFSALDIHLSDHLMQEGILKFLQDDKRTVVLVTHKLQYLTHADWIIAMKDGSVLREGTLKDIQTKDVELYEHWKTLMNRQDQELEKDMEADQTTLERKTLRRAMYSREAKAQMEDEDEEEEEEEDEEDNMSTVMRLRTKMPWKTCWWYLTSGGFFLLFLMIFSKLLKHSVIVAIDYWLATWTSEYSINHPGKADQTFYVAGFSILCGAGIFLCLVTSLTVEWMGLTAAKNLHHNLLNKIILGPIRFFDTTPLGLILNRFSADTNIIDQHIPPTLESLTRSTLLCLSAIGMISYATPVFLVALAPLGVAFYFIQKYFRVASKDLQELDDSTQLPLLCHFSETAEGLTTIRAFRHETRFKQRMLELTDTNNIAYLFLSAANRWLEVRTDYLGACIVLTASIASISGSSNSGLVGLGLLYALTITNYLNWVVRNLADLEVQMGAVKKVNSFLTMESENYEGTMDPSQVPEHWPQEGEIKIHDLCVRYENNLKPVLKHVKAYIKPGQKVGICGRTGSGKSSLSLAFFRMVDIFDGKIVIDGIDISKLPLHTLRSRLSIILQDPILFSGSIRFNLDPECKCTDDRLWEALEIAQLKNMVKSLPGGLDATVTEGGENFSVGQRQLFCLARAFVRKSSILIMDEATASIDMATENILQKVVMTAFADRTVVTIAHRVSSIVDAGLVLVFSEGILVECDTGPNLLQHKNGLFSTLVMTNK
Source text: as §7, §8, §9, §5, §6

KIR6.2-SUR1 = target: T3, KIR6.2-SUR1 (Homo sapiens, UniProt Q09428+Q14654); experiment: Whole-cell current of recombinant KIR6.2-SUR1 in Hek293 cells; format: cell-based; details: Hek293 cells KIR6.2-SUR1, whole-cell
T3 construct: expressed in transfected cells; host or cells: Hek293
Description: as §1, §2, §3, §4, §5, §6

[5] = set-up: method as in PMID 24330023; details: multiple myeloma patients ref 9; cited from earlier work
[6] = tested on: KATP channels of femora primary bone cells; experiment: KATP currents in cell-attached patches of femora (long bone) primary bone cells; format: cell-based, mice; details: for IC50 / Imax % / Slope: Femora primary bone cells, cell-attached patches; for inhibition of KATP currents in C-A patches (in words): nanomolar concentrations, Figure 1C
Description: (§10) The culture of primary bone cells from adult mice was obtained from long bones (tibia and femur) and calvaria, as previously described. Bones were collected, cleaned, and flushed for removing the internal bone marrow cells. Small bone pieces of around 1 mm^3 were treated with trypsin-EDTA 0.25% (w/v) for 1 h and with 0.2% collagenase solution for an additional hour in a shaking water bath to remove all remaining soft tissue and adherent cells. Clean bone pieces have been cultured in basal medium enriched with 50 µg/mL of ascorbic acid. Osteoblasts from femora (Figure S1A, Supplementary Material) and calvaria chips (Figure S1B) were positive to Alizarin red staining (Figure S1C). The marker of osteoblasts was positive, as tested by the PCR expression analysis on cell pellets (Figure S1D).
as §2, §4
Drug actions on the channel currents recorded during instantaneous I/V relationships were investigated by applying a depolarization protocol, in response to voltage pulses from −180 mV to +100 mV (Vm) in 20 mV steps. Currents were expressed as densities (pA/pF) to control for cell size/capacitance differences. All experiments were performed at room temperature (20–22 °C) and sampled at 2 kHz (filter = 1 kHz) using an Axopatch-1D amplifier equipped with a CV-4 headstage (Axon Instruments; Foster City, CA, USA). Drug solutions were applied using a fast perfusion system during the continuous monitoring of the seal resistance at 18–22 °C room temperature in excised patches. In whole-cell and cell-attached patch-clamp experiments, before recording, the cells were equilibrated for 10 s with the solution. Data acquisition and analysis were performed using pCLAMP 10 software suite (Axon Instruments; Foster City, CA, USA), as previously described. Seal resistance was continuously monitored during the experiment.
The percentage of KATP current inhibition induced by ZOL was calculated as (I CTRL-I drug)/(I CTRL-I BaCl2) × −100. The concentration response data of ZOL against different KATP channel currents were fitted by an algorithm using the non-linear dynamic fitting routine of Sigma Plot, 10.0.

KIR6.1-SUR2B = target: T4, KIR6.1-SUR2B (Homo sapiens, UniProt O60706+Q15842); experiment: Whole-cell current of recombinant KIR6.1-SUR2B in Hek293 cells; format: cell-based
T4 construct: expressed in transfected cells; host or cells: Hek293
T4 sequence (Q15842 whole entry): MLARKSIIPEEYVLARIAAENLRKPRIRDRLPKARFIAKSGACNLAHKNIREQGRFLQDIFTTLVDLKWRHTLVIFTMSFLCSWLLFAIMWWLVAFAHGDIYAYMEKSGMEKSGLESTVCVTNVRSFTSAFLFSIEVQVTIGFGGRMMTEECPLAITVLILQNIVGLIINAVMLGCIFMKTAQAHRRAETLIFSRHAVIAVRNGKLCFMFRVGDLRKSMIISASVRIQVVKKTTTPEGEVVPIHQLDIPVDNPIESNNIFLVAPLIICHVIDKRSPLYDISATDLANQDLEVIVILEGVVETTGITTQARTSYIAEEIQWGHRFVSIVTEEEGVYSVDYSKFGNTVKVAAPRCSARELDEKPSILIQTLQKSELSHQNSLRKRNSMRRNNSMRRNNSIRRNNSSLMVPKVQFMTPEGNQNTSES
T4 sequence (O60706 1-1549 isoform O60706-2): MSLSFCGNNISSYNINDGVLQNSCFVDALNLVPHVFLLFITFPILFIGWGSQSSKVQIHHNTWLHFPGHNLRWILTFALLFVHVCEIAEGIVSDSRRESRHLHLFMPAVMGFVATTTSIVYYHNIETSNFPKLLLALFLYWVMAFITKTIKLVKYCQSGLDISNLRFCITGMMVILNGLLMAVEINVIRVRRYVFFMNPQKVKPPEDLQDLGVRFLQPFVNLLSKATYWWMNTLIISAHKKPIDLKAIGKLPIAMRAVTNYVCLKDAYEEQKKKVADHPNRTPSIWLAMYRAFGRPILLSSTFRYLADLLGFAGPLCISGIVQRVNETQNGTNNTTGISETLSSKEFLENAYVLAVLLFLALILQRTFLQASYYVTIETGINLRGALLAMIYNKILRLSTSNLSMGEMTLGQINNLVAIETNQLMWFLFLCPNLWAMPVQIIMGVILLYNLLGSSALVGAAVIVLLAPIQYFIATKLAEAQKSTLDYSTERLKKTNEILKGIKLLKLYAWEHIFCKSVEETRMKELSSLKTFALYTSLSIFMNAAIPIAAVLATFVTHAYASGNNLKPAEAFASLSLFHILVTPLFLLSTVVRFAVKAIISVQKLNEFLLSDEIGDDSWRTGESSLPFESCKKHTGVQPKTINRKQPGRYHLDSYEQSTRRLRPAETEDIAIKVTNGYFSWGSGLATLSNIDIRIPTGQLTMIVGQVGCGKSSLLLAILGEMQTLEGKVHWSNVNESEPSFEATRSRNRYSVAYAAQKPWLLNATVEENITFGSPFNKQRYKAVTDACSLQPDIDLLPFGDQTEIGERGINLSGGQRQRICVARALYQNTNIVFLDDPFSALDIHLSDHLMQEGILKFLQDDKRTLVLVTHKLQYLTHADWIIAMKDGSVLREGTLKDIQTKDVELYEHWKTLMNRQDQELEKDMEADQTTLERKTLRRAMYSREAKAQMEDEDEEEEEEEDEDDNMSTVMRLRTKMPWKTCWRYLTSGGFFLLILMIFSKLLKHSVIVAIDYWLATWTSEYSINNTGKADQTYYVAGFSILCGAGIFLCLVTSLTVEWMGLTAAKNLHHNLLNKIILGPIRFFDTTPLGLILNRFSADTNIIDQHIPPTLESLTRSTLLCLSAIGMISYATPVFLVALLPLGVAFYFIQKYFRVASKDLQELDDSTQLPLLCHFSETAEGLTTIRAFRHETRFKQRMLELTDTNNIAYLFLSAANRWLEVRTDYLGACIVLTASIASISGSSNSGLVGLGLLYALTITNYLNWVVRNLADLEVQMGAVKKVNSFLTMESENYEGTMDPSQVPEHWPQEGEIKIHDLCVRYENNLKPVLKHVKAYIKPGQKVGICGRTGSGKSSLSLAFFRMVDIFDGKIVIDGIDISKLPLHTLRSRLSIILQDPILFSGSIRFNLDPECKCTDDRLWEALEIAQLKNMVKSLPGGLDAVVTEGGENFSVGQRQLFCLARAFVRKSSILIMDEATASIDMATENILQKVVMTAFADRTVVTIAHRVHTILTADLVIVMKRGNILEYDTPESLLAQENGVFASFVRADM
Description: as §1, §2, §3, §4, §5, §6

KIR6.1-SUR1 = target: T5, KIR6.1-SUR1 (Homo sapiens, UniProt Q09428+Q15842); experiment: Whole-cell current of recombinant KIR6.1-SUR1 in Hek293 cells; format: cell-based; details: Hek293 cells KIR6.1-SUR1, whole-cell, −60 mV
T5 construct: expressed in transfected cells; host or cells: Hek293
Description: as §1, §2
CaCl2 was added to the pipette solutions to give a free Ca^2+ ion concentration of 1.6 × 10^−6 M in whole-cell experiments. The calculation of the free Ca^2+ ion concentration in the pipette was performed using the MaxChelator software (Stanford University; Stanford, CA, USA). […]
Drug actions on the channel currents recorded during instantaneous I/V relationships were investigated by applying a depolarization protocol, in response to voltage pulses from −180 mV to +100 mV (Vm) in 20 mV steps. Currents were expressed as densities (pA/pF) to control for cell size/capacitance differences. […] Seal resistance was continuously monitored during the experiment.
as §6

[7] = tested on: KATP channels of calvaria primary bone cells; experiment: KATP currents in cell-attached patches of calvaria primary bone cells; format: cell-based, mice
Description: as §10, §2, §4
as §5, with “USA).” for “USA). Drug solutions were applied using a fast perfusion system during the continuous monitoring of the seal resistance at 18–22 °C room temperature in excised patches. In whole-cell and cell-attached patch-clamp experiments, before recording, the cells were equilibrated for 10 s with the solution.”
as §6

[8] = musculoskeletal and connective tissues disorders S.O.C.
[9] = within the KATP channel blockers
[10] = all ages ref EudraVigilance database

O=P(O)(O)C(O)(Cn1ccnc1)P(=O)(O)O [Zoledronic acid]
hypoglycemia, % of the A.D.R. per S.O.C. [1]: 1.63%
arrhythmia, % of cardiac A.D.R. ([1]; cardiac A.D.R.): 8.1%
atrial fibrillation, % of cardiac A.D.R. ([1]; cardiac A.D.R.): 17.9%
congestive heart failure, % of cardiac A.D.R. ([1]; cardiac A.D.R.): 12.6%
myocardial infarction, % of cardiac A.D.R. ([1]; cardiac A.D.R.): 12%
palpitations, % of cardiac A.D.R. ([1]; cardiac A.D.R.): 13.2%
sinus tachycardia, % of cardiac A.D.R. ([1]; cardiac A.D.R.): 5.3%
tachycardia, % of cardiac A.D.R. ([1]; cardiac A.D.R.): 12.2%
arthralgia, % of the A.D.R. [1, 8]: 16%
muscular weakness, % of the A.D.R. per S.O.C. [1, 8]: 2.7%
myalgia, % of the A.D.R. [1, 8]: 10%
osteonecrosis of the jaw, % of the total A.D.R. [1, 8]: 47.9%
blood pressure increase, % of A.D.R. ([1]; vascular S.O.C.): 16%
hypertension, % of A.D.R. ([1]; vascular S.O.C.): 25%
hypotension, % of A.D.R. ([1]; vascular S.O.C.): 18%
Proportional Reporting Ratio (P.R.R.) arrhythmias [1, 9]: ≥ 2
Proportional Reporting Ratio (P.R.R.) atrial fibrillation [1, 9]: ≥ 2
Proportional Reporting Ratio (P.R.R.) diarrhea [1, 9]: ≥ 2
Proportional Reporting Ratio (P.R.R.) hypertension [1, 9]: ≥ 2
Proportional Reporting Ratio (P.R.R.) hypoglycemia [1, 9]: lower risk
Proportional Reporting Ratio (P.R.R.) muscular weakness [1, 9]: ≥ 2
Proportional Reporting Ratio (P.R.R.) myalgia [1, 9]: ≥ 2
Proportional Reporting Ratio (P.R.R.) osteonecrosis of jaw [1, 9]: ≥ 2
Proportional Reporting Ratio (P.R.R.) rhabdomyolysis [1, 9]: lower risk
IC50 (KIR6.2-SUR2A): 7100 nM
Slope (KIR6.2-SUR2A): * 0.12 ± 0.7
Imax % (KIR6.2-SUR2A; −60 mV): −83.7 ± 1.2 n = 15 cells %
osteonecrosis of the jaw, affected females [2, 10]: 4792
osteonecrosis of the jaw, affected males [2, 10]: 3184
adverse reaction cases reported ([2]; all indications, up to 1 May 2021 ref EudraVigilance database): 35,201 cases
arrhythmia, number of reports ([2]; cardiac A.D.R. ref EudraVigilance database): 197
IC50 [3]: 0.21 nM
Slope ([3]; concentration-response fit): 0.29 ± 0.05
Imax % ([3]; −60 mV, symmetrical 150 mM K+): −99.4 ± 5 n = 21 fibers %
IC50 [4]: 1200 nM
Slope ([4]; concentration-response fit): 0.38 ± 0.07
Imax % ([4]; −60 mV, symmetrical 150 mM K+): −100.1 ± 9.3 n = 17 fibers %
IC50 (KIR6.2-SUR1): 21000 nM
Slope (KIR6.2-SUR1): * 0.18 ± 0.09
Imax % (KIR6.2-SUR1; −60 mV): * −60.13 ± 4.1 n = 15 cells %
median overall survival [5]: 52 months
IC50 [6]: 0.16 nM
Imax % [6]: −104.8 ± 8.7 n = 21 cells %
Slope [6]: 0.31 ± 0.07
IC50 (KIR6.1-SUR2B): 0.39 nM
Slope (KIR6.1-SUR2B): 0.59 ± 0.04
Imax % (KIR6.1-SUR2B; −60 mV): −94 ± 4.8 n = 15 cells %
Imax % (KIR6.1-SUR1): * −40 ± 8.8 n = 3 cells %

COc1ccc(Cl)cc1C(=O)NCCc1ccc(S(=O)(=O)NC(=O)NC2CCCCC2)cc1 [Glibenclamide, 5-chloro-N-(2-{4-[(cyclohexylcarbamoyl)sulfamoyl]phenyl}ethyl)-2-methoxybenzamide]
IC50 [7]: 10.2 nM
Imax % [7]: −93 ± 14 n = 18 cells %
Slope [7]: 0.5 ± 0.03
inhibition of KATP currents in C-A patches (in words) [6]: markedly reduced
IC50 [6]: 5.07 nM
Imax % [6]: −88.32 ± 21 n = 13 cells %
Slope [6]: 0.4 ± 0.08

CCOc1cc(CC(=O)N[C@@H](CC(C)C)c2ccccc2N2CCCCC2)ccc1C(=O)O [repaglinide]
hypoglycemia, % of the A.D.R. per S.O.C. [1]: 84.6%
rhabdomyolysis, % of A.D.R. ([1]; within musculoskeletal and connective tissue disorders): 17.8%
Proportional Reporting Ratio (P.R.R.) hypoglycemia [1, 9]: ≥ 2

CCCCNC(=O)NS(=O)(=O)c1ccc(C)cc1 [tolbutamide]
inhibition of KATP currents in C-A patches (in words) [6]: less effective inhibitor
